How the values were obtained:
diphenolase = test system: diphenolase; parameters: method as in PMID 7714722; conditions: ref [40], [41]; cited from earlier work
B16F10 melanoma cells = assay: Assessment of cellular melanin content (α-MSH-induced melanogenesis); type: cell-based, mouse
Method: Cellular melanin content was determined as described previously. Briefly, 1 × 10^5 B16F10 cells were seeded in 24-well plates and cultured at 37°C and 5% CO2 for 48 h. Subsequently, the cells were treated with 100 nM α-MSH for 24 h, followed by various concentrations (0, 0.1, 0.5, and 1 mg/mL) of Ac-P4 or kojic acid for 24 h. The cells were washed twice with PBS and cell pellets were then dissolved in 100 μL of 1 N NaOH in 10% DMSO, for 1 h at 80°C. The relative melanin content was determined by measuring the absorbance at 405 nm, using the ELISA reader (TECAN, Austria). The melanin content was calculated using the following equation: (Δsample/Δcontrol) × 100%. All determinations were performed in triplicate.

mushroom tyrosinase [1] = molecular target: T1, mushroom tyrosinase (Agaricus bisporus, UniProt C7FF04); assay: Inhibitory effect on mushroom tyrosinase (diphenolase activity, oxidation of L-DOPA); type: biochemical; conditions: for IC50: 1 mM L-DOPA substrate, 25°C, 30 min, means ± SD of three replicates, read-out: IC50 against diphenolase activity of mushroom tyrosinase (converted)
Method: In a 96-well plate, 20 μL of 0, 0.01, 0.05, 0.1, 0.2, 0.5, and 1 mg/mL of N-acetyl-pentapeptides was mixed with 160 μL of 1 mM L-DOPA. After 20 μL of 212.65 μg/mL of mushroom tyrosinase (in 50 mM potassium phosphate buffer) was added, the solutions were incubated at 25°C for 30 min. All experiments were conducted in triplicate. The absorbance was measured at 475 nm by using an ELISA reader (TECAN, Austria). The tyrosinase inhibitory activity was calculated using the following equation: [(Δcontrol − Δsample)/Δcontrol] × 100%. The IC50 value was determined using regression of a constructing dose-response curve at which 50% target activity is lost.

mushroom tyrosinase [2] = molecular target: T1, mushroom tyrosinase; assay: Kinetic analysis of tyrosinase inhibition (Lineweaver-Burk plots); type: biochemical; conditions: for Inhibition type: Lineweaver-Burk plot analysis; for K IS: inhibition constant from secondary plot (enzyme-substrate complex); for K IS / Ki: L-DOPA 0.25-4 mM, inhibitor 0, 0.1, 0.2 mg/mL; for Ki: inhibition constant from secondary plot
Method: In a 96-well plate, the kinetic properties of N-acetyl-pentapeptides (20 μL of 0, 0.1, and 0.2 mg/mL) in the inhibition of tyrosinase (20 μL of 212.65 μg/mL) were determined using various concentrations of L-DOPA (160 μL of 0.25, 0.5, 1, 2, and 4 mM) as substrates. The reaction mixture was measured using an ELISA reader at 475 nm for 10 min. All experiments were conducted in triplicate. The inhibition mechanism was assessed using Lineweaver-Burk plots, and the inhibition constants K IS and K I were obtained from second plots of the apparent 1/V max and apparent K m/V max against the inhibitor concentration, respectively, as described by Liao et al..

[3] = molecular target: T2, intracellular tyrosinase activity in B16F10 cells (Mus musculus, UniProt P11344); assay: Measurement of intracellular tyrosinase activity (α-MSH-induced); type: cell-based; conditions: B16-F10, 1 mg/ml, 24 h after 100 nM α-MSH
T2 construct: Cell lysate; endogenous in cells; host or cells: B16F10 mouse melanoma cells (BCRC, Hsinchu, Taiwan), α-MSH-stimulated
T2 sequence (P11344 19-533): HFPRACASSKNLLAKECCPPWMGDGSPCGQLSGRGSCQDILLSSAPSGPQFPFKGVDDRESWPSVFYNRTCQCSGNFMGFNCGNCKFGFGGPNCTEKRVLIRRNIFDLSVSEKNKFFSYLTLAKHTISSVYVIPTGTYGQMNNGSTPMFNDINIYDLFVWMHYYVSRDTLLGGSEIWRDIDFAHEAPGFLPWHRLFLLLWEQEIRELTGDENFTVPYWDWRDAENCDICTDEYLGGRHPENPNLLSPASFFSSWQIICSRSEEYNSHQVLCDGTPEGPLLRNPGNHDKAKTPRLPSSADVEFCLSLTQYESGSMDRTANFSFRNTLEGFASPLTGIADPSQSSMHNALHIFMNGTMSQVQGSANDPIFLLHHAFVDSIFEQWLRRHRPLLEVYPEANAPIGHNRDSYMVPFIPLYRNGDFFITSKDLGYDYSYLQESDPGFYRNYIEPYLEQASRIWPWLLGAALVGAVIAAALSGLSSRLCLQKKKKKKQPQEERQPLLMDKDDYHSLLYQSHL
Method: Fig 1. Inhibitory effects of Ac-P4 on α-MSH-induced tyrosinase activity in B16F10 cells. Ac-P4 inhibited α-MSH-induced tyrosinase activity in a dose-dependent manner […]
Measurement of intracellular tyrosinase activity
The cells were seeded in 24-well plates (8 × 10^4 cells/well), and cultured in 37 °C, 5% CO2 for 24 h. Then the cells were treated with 100 nM α-MSH for 24 h and then added Ac-P4 for 24 h. Cells rinsed with PBS twice and lysed with phosphate buffer (pH 6.8) containing 1% Triton X-100 followed by freezing and thawing three times. Centrifugation at 15,000 rpm for 10 min obtained clarified lysates. Cell lysate (90 μL) mixed with fresh prepared L-DOPA (10 μL) at 37 °C for 30 min. Tyrosinase activity was evaluated by the absorbance at 475 nm using an ELISA reader (Tecan, […]
Tyrosinase activity (%) = (△Abssample/△Abscontrol) ×100%.
(also on this page, place not known: (mg/ml)control 0 0.1 0.5 Relative (% control) 0 50 150 200 250 α-MSH + α-MSH - + + + + * 1 of 100 Ac-P4 Tyrosinase activity)
(1 picture or pasted object on this page, not shown here)

B16F10 cells = assay: Cell viability assay (MTT); type: cell-based, mouse; conditions: 0.1 to 1 mg/mL, 24 h
Method: B16F10 cells were cultured in Dulbecco's modified Eagle's medium (DMEM; Gibco Life Technologies, Carlsbad, CA, USA), supplemented with 10% fetal bovine serum, 100 units/mL of penicillin G, 100 μg/mL of streptomycin, and 0.25 μg/mL of amphotericin, and then incubated at 37°C with 5% CO2. The viability of cells treated with N-acetyl-pentapeptides was determined using an MTT assay. Briefly, 3 × 10^4 B16F10 cells were seeded and adhered in 96-well plates. After 24 h, DMEM was removed and 200 μL of various concentrations of fresh DMEM and N-acetyl-pentapeptide solution were added, and the cells were incubated for 24 h. After incubation, the medium was removed, and 100 μL of MTT in PBS solution (0.5 mg/mL) was added to each well, and the cells were incubated for 40 min at 37°C. Subsequently, the MTT solution was removed and 100 μL of DMSO was added to each well, and the plate was gently shaken to dissolve the formazan crystals. The absorbance of each well was measured at 570 nm, using the ELISA reader. All determinations were performed in triplicate.

T1 sequence (C7FF04 1-392): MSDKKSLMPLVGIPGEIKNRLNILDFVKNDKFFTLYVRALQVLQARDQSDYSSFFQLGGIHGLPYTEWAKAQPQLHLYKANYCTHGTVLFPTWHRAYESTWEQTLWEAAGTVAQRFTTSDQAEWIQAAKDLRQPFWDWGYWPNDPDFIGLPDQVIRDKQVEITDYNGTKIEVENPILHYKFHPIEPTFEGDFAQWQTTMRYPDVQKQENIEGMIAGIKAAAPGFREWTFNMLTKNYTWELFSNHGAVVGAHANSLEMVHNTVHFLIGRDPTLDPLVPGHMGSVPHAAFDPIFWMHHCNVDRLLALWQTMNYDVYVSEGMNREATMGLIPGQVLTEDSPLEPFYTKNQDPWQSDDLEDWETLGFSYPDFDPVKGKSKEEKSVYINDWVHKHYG

IC50 (B16F10 melanoma cells; Mus musculus, B16-F10, B16F10, α-MSH-induced, reillustrated in molarity, read-out: IC50 for inhibitory effect on melanin content) [mM] | IC50 (mushroom tyrosinase [1]) [mM] | lag time (mushroom tyrosinase [1]; peptide concentration 1 mg/mL) [s] | Inhibition type (mushroom tyrosinase [2]) | K IS (mushroom tyrosinase [2]) [mg/mL] | Ki (mushroom tyrosinase [2]) [mM] | lag time (mushroom tyrosinase [1]; peptide concentration 0.5 mg/mL (b28 words it as concentrations less than 0.5 mg/mL)) [s] | inhibition at 1000 µg/mL [3] [%] | Compound | inhibition type on diphenolase (diphenolase) | inhibition at 100 µg/mL (B16F10 melanoma cells; Mus musculus, B16-F10, 0.1 mg/mL, 24 h after 100 nM α-MSH, read-out: inhibitory effect on melanin production) [%] | inhibition at 500 µg/mL (B16F10 melanoma cells; Mus musculus, B16-F10, 0.5 mg/mL, 24 h after 100 nM α-MSH, read-out: inhibitory effect on melanin production) [%] | inhibition at 1000 µg/mL (B16F10 melanoma cells; Mus musculus, B16-F10, 1 mg/mL, 24 h after 100 nM α-MSH, read-out: inhibitory effect on melanin production) [%] | cytotoxicity in B16F10 cells (B16F10 cells) | inhibitory effect on melanin production (B16F10 melanoma cells; 0.1 mg/mL, 24 h after 100 nM α-MSH) [%] | inhibitory effect on melanin production (B16F10 melanoma cells; 0.5 mg/mL, 24 h after 100 nM α-MSH) [%] | inhibitory effect on melanin production (B16F10 melanoma cells; 1 mg/mL, 24 h after 100 nM α-MSH) [%] | fold stronger than kojic acid in inhibiting melanin formation (B16F10 melanoma cells; ratio of melanin content IC50s (mM)) [fold]
1.51 | – | – | – | – | – | – | – | O=c1cc(CO)occ1O [kojic acid, reference compound] | mixed-type | 47.2 | 70.6 | 98.6 | – | – | – | – | –
– | 1.06 | 80 | Mixed | 2.003 | 0.382 | – | – | Ac-KSRFR-OH [Ac-P2, Ac-KSRFR] | – | – | – | – | – | – | – | – | –
– | 1.22 | 70 | Mixed | 1.685 | 0.415 | – | – | Ac-KSSFR-OH [Ac-P3, Ac-KSSFR] | – | – | – | – | – | – | – | – | –
– | – | 500 | Mixed | 0.517 | – | 80 | 57.9 | Ac-RSRFS-OH [Ac-P4, Ac-RSRFS] | – | – | – | – | did not induce any significant cytotoxicity | 48.63 | 78.18 | 94.7 | 16.7

Compound | IC50 (B16F10 melanoma cells; Mus musculus, B16-F10, B16F10, α-MSH-induced, reillustrated in molarity, read-out: IC50 for inhibitory effect on melanin content) [mM] | IC50 (mushroom tyrosinase [1]) [mM] | lag time (mushroom tyrosinase [1]; peptide concentration 1 mg/mL) [s] | Inhibition type (mushroom tyrosinase [2]) | K IS (mushroom tyrosinase [2]) [mg/mL] | Ki (mushroom tyrosinase [2]) [mM] | lag time (mushroom tyrosinase [1]; peptide concentration 0.5 mg/mL (b28 words it as concentrations less than 0.5 mg/mL)) [s] | inhibition at 1000 µg/mL [3] [%] | inhibition type on diphenolase (diphenolase) | inhibition at 100 µg/mL (B16F10 melanoma cells; Mus musculus, B16-F10, 0.1 mg/mL, 24 h after 100 nM α-MSH, read-out: inhibitory effect on melanin production) [%] | inhibition at 500 µg/mL (B16F10 melanoma cells; Mus musculus, B16-F10, 0.5 mg/mL, 24 h after 100 nM α-MSH, read-out: inhibitory effect on melanin production) [%] | inhibition at 1000 µg/mL (B16F10 melanoma cells; Mus musculus, B16-F10, 1 mg/mL, 24 h after 100 nM α-MSH, read-out: inhibitory effect on melanin production) [%] | cytotoxicity in B16F10 cells (B16F10 cells) | inhibitory effect on melanin production (B16F10 melanoma cells; 0.1 mg/mL, 24 h after 100 nM α-MSH) [%] | inhibitory effect on melanin production (B16F10 melanoma cells; 0.5 mg/mL, 24 h after 100 nM α-MSH) [%] | inhibitory effect on melanin production (B16F10 melanoma cells; 1 mg/mL, 24 h after 100 nM α-MSH) [%] | fold stronger than kojic acid in inhibiting melanin formation (B16F10 melanoma cells; ratio of melanin content IC50s (mM)) [fold]
Ac-RSRFK-OH [Ac-P1, Ac-RSRFK] | – | 1.02 | 110 | Mixed | 1.278 | 0.376 | – | – | – | – | – | – | – | – | – | – | –

From PMC4130364, “Kinetics of Mushroom Tyrosinase and Melanogenesis Inhibition by N-Acetyl-pentapeptides” (The Scientific World Journal, 2014)
